Reference: PMC6079455, “Discovery of Novel Caeridins from the Skin Secretion of the Australian White's Tree Frog, Litoria caerulea” (International Journal of Genomics, 2018)
Ends that are not written are not given here.

What was measured:
[1] = tested on: rat urinary bladder smooth muscle; experiment: Rat urinary bladder smooth muscle test; details: 10^−11 to 10^−6 M
Description: Female Wistar rats (250–300 g) were euthanized by CO2 asphyxiation followed by cervical dislocation under appropriate Home Office (UK) animal licenses. Full urinary bladder and ileum were carefully removed from the abdomen, then placed in cold Kreb's solution (118 mM NaCl, 4.7 mM KCl, 25 mM NaHCO3, 1.15 mM NaH2PO4, 2.5 mM CaCl2, 1.1 mM MgCl2, and 5.6 mM glucose), equilibrated with a carbogen mixture (95% O2, 5% CO2). The prepared smooth muscles linked with transducers were placed in 2 ml capacity organ baths with Kreb's solution flowing through at 2 ml/min and maintained at 37°C with constant bubbling of carbogen gas mixture (95% O2, […]) and equilibrated for 1 h prior to analysis. Then the viability of these smooth muscle preparations was tested by 60 mM KCl. Caeridins were tested at sequential molar concentrations in the range from 10^−6 M to 10^−11 M. Dose-response curves were depicted for each Caeridin on individual smooth muscle preparations (n = 5). Changes in tension of the smooth muscle preparations were detected by pressure transducers connected to a PowerLab System (ADInstruments Pty Ltd.). Data were recorded and calculated to obtain the means of responses and standard error of means (SEM). The dose-response curve of each Caeridin was established using best-fit algorithms through the data analysis package provided by GraphPad Prism (Version 6.0; GraphPad Software Inc., San Diego, CA, USA), and the comparative EC50 value for each peptide was depicted.

E. coli NCTC10418 = experiment: Antimicrobial test (broth microdilution); type: cell-based, Escherichia coli
Description: The antimicrobial activities were tested by the broth microdilution method and evaluated by the determination of MIC values against different tested microorganisms, the Gram-positive bacteria, S. aureus (NCTC 10788), E. faecalis (NCTC12697), and MRSA (NCTC 12493); the Gram-negative bacterium, E. coli (NCTC 10418); and the yeast, C. albicans (NCYC 1467). The microorganisms were cultured to their log phase in MHB and diluted to 5 × 10^5 CFU/ml then subsequently treated with peptide solutions of gradient concentrations. After incubation at 37°C overnight, the growth of microorganisms was detected at a wavelength of 550 nm using a Synergy HT plate reader (Biolise BioTek ELx808, Winooski, VT, USA). The MICs were determined as the lowest concentration of peptide where […].

E. coli = experiment: Membrane permeability on E. coli (ONPG / β-galactosidase); type: cell-based, Escherichia coli; details: ONPG hydrolysis, absorbance 420 nm, 0-30 min, 37°C, 1 × 10^8 CFU/ml, PBS pH 7.4
Description: The membrane permeabilsation of E.coli was determined by measuring the release of β-galactosidase activity from E. coli into the culture medium with ONPG as the substrate. The log-phase E. coli was grown in MHB medium containing 2% lactose at 37°C, and the cells were pelleted. The cell pellets were suspended in 10 mM PBS (pH 7.4) containing 1.5 mM ONPG and diluted to 1 × 10^8 CFU/ml. Aliquots of cells were incubated with different concentrations of peptides at 37°C. Permeabilisation was measured at 420 nm every 2 min from 0 to 30 min, which reflects ONPG influx into the cells working as an indicator of the permeability of the tested peptides.

horse erythrocytes = experiment: Haemolytic test; type: cell-based; details: 32 μM, horse red blood cells, 37°C, 2 h, relative to 1% Triton X-100
Description: The haemolysis of Caeridins was tested on prepared defrinated horse red blood cells (TCS Biosciences Ltd., Buckingham, UK) by incubating equal volumes of peptide solutions with erythrocyte suspensions at 37°C for 2 H. Maximum haemolysis control was included by incubating equal volumes of 1% Triton X-100 (Sigma-Aldrich, St. Louis, MO, USA) with erythrocyte suspensions. Lysis of erythrocytes was detected by the measurement of supernatant absorbance at a wavelength of 550 nm using a Synergy HT plate reader (Biolise BioTek ELx808, Winooski, VT, USA). The level of haemolysis was as calculated as (3) Haemolysis %=A−A0/A1−A0×100%, where A represents the absorbance with peptide treatments, A0 represents the average absorbance in untreated erythrocytes, and A1 represents the average absorbance in the maximum haemolysis control (1% Triton X-100-treated).

In the case of GLFDIVGKLLGGLGL-NH2 [Caeridin-a1], the “smooth muscle activity (rat bladder)” value [1] is reported as “did not show any smooth muscle activities”, the MBC (E. coli NCTC10418) is reported as 64 µM and the MIC (E. coli NCTC10418; MHB, 5 × 10^5 CFU/ml, 37°C overnight, 550 nm) is reported as 32 µM. The “membrane permeabilisation of E. coli at MIC and MBC” value (E. coli) was “induced inner membrane permeabilisation within 30 min” and the haemolysis (horse erythrocytes) was 18%.
